Tests used:
[1] = molecular target: T1, human notum pectinacetyltransferase (Homo sapiens, UniProt Q6P988); test: Binding assay (OPTS esterase substrate, fluorimetric); type: biochemical
T1 construct: made in house; unpurified conditioned medium used
T1 sequence (Q6P988 20-496): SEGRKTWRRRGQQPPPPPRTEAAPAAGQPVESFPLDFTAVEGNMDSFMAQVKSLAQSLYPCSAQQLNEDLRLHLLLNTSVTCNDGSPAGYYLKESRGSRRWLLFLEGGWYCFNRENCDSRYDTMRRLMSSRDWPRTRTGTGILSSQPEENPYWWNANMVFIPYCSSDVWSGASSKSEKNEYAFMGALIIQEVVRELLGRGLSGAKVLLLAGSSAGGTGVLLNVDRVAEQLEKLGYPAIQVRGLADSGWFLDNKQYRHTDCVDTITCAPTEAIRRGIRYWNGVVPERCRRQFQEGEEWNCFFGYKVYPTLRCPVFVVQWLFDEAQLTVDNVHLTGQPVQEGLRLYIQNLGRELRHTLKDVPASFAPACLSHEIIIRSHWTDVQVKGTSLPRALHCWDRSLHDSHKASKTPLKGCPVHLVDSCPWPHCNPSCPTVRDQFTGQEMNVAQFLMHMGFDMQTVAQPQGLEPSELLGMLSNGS
Protocol: Plasmid containing human notum pectinacetyltransferase in pcDNA3.1(+) vector was transfected into HEK (293 cells and clones were selecting by growing in presence of 400 ug/mL of G418. Condition media from these cells was used for the assay.

[2] = molecular target: T1, human notum pectinacetyltransferase; test: Reporter assay (CellSensor LEF/TCF-bla FreeStyle 293F cells, Wnt3a and notum conditioned media); type: cell-based
Protocol: Plasmid containing human notum pectinacetyltransferase in pcDNA3.1(+) vector was transfected into HEK (293 cells and clones were selecting by growing in presence of 400 ug/mL of G418. The clone containing highest expression of human notum pectinacetyltransferase in the conditioned media was maintained for all future activity assays. L cells overexpressing and secreting Wnt3a into the conditioned media were purchased from ATCC.
The assay protocol was as follows. […] The cell growth medium consisted of DMEM with 10% Dialyzed FBS, 5 μg/ml Blasticidin (Invitrogen, R210-01), 0.1 mM NEAA, 25 mM HEPES and 1×GPS. Cells were then trypsinized by first rinsing with PBS, followed by addition of 5 mL of trypsin and incubation of plates at room temperature for two minutes. A total of 10 mL of assay media (Opti-MEM, plus 0.5% dialyzed FBS, 0.1 mM NEAA, 1 mM sodium pyruvate, 10 mM HEPES, 1×GPS) was then added per 15 cm plate. Cells were counted and suspended at 0.75 million cells per mL. […] After incubation of cells at 37° C. for 3 hours, 10 μL of 30 mM LiCl in assay medium was added per well, followed by incubation at 37° C. for another 3 hours. […] Ten μL of the Wnt3a/notum pentinacetyltransferase mixture was then transferred from Greiner plates to each well of the 384-well plates containing the CellSensor cells.

[3] = given as numeric bound above the legend's highest class
[4] = given as numeric bound above the legend's classes
[5] = given as a numeric bound above the legend's range

Structure (SMILES)	IC50 ([1]; class symbols) [nM]	EC50 ([2]; class symbols) [nM]	also measured
O=C(O)C1CCCN1C(=O)c1cc2c(s1)-c1ccccc1CC2 (stereo not drawn)			IC50 [1, 3]: > 2000 nM
O=C(O)C1C(O)CCN1C(=O)c1cc2c(s1)-c1c(F)ccc(F)c1SC2 (stereo not drawn)			IC50 [1, 3]: > 2000 nM
CC1(C)Oc2ccccc2-c2sc(C(=O)O)cc21			IC50 [1, 3]: > 2000 nM
O=C(O)c1cc2c(s1)-c1ccoc1CC2			EC50 [2, 4]: > 1000 nM
O=C(O)c1cc2c(s1)-c1scnc1CC2			EC50 [2, 4]: > 1000 nM
COc1ccc2c(c1Cl)CCc1cc(C(=O)NCCO)sc1-2	< 1000	< 50	
N#Cc1cccc2c1OCc1cc(C(=O)O)sc1-2	< 100	< 50	
COc1ccc2c(c1C#N)CCc1cc(C(N)=O)sc1-2	< 1000	< 50	
COc1ccc2c(c1F)CCc1cc(C(N)=O)sc1-2	< 100	< 50	
O=C(NCCO)c1cc2c(s1)-c1cccc(F)c1CC2	< 1000	< 50	
COCCNC(=O)c1cc2c(s1)-c1cccc(F)c1CC2	< 100	< 50	
O=C(O)c1cc2c(s1)-c1ccc(F)c(F)c1OC2	< 1000	< 50	
NC(=O)c1cc2c(s1)-c1cc(F)cc(F)c1CC2	< 50	< 50	
CC1(C)Cc2cc(C(N)=O)sc2-c2c(F)ccc(F)c21	< 50		
CN(C)c1ccc2c(c1)CCc1cc(C(N)=O)sc1-2	< 2000		
O=C(O)c1cc2c(s1)-c1ccc(Cl)cc1CC2	< 1000		
O=C(O)c1cc2c(s1)-c1ccc(F)cc1CC2	< 1000	< 50	
Cc1ccc2c(c1)CCc1cc(C(=O)O)sc1-2	< 1000		
O=C(O)c1cc2c(s1)-c1cc(F)c(F)cc1CC2	< 50	< 50	
Cc1cc2c(cc1C)-c1sc(C(=O)O)cc1CS2			IC50 [1, 3]: > 2000 nM
Cc1cc2c(cc1C)-c1sc(C(=O)O)cc1CC2	< 2000		
CC1(C)Cc2cc(C(=O)O)sc2-c2cc(Br)ccc21			IC50 [1, 5]: > 2000 nM
NC(=O)c1cc(F)c2c(c1)-c1sc(C(=O)O)cc1CO2			IC50 [1, 3]: > 2000 nM
O=C(O)c1cc2c(s1)-c1cc(Cl)ccc1SC2	< 2000		
N#Cc1ccc2c(c1)-c1sc(C(=O)O)cc1CO2			IC50 [1, 3]: > 2000 nM

Structure (SMILES)	IC50 ([1]; class symbols) [nM]	EC50 ([2]; class symbols) [nM]	also measured
N#Cc1cc(F)c2c(c1)-c1sc(C(=O)O)cc1CO2	< 1000		
CC1Oc2ccc(F)cc2-c2sc(C(=O)O)cc21 (stereo not drawn)	< 1000		
COc1ccc2c(c1)-c1sc(C(=O)O)cc1CO2			IC50 [1, 3]: > 2000 nM
Cc1ccc2c(c1)-c1sc(C(=O)O)cc1CS2			IC50 [1, 5]: > 2000 nM
Cc1ccc2c(c1C)-c1sc(C(=O)O)cc1CC2	< 2000		
Cc1ccc2c(c1C)-c1sc(C(N)=O)cc1CC2	< 1000		
O=C(O)c1cc2c(s1)-c1c(Br)cccc1CC2			IC50 [1, 3]: > 2000 nM
N#Cc1cccc2c1-c1sc(C(=O)O)cc1CC2			IC50 [1, 3]: > 2000 nM
Cc1cccc2c1-c1sc(C(=O)O)cc1CO2			IC50 [1, 5]: > 2000 nM
O=C(NCCc1nnn[nH]1)c1cc2c(s1)-c1cccc(F)c1CC2	< 1000	< 50	
CN(C)CCNC(=O)c1cc2c(s1)-c1ccccc1CC2			IC50 [1, 3]: > 2000 nM
O=C(NCCN1CCOCC1)c1cc2c(s1)-c1ccccc1CC2			IC50 [1, 3]: > 2000 nM
CS(=O)(=O)NC(=O)c1cc2c(s1)-c1ccccc1CC2			IC50 [1, 3]: > 2000 nM
CCNC(=O)c1cc2c(s1)-c1ccccc1CC2	< 1000		
O=C(NS(=O)(=O)O)c1cc2c(s1)-c1ccccc1CC2	< 2000		
COCC1CCCN1C(=O)c1cc2c(s1)-c1cc(F)cc(F)c1SC2 (stereo not drawn)			IC50 [1, 3]: > 2000 nM
CCOC(=O)c1cc2c(s1)-c1cc(F)cc(Cl)c1SC2			IC50 [1, 4]: > 2000 nM
CCOC(=O)c1cc2c(s1)-c1cccc(C#N)c1CC2			IC50 [1, 3]: > 2000 nM
CCOC(=O)c1cc2c(s1)-c1ccc(Cl)cc1CC2			IC50 [1, 3]: > 2000 nM
CCOC(=O)c1cc2c(s1)-c1ccc(C#N)cc1CC2			IC50 [1, 3]: > 2000 nM
CCOC(=O)c1cc2c(s1)-c1ccc(C)cc1CC2			IC50 [1, 3]: > 2000 nM
CCOC(=O)c1cc2c(s1)-c1cc(F)ccc1OC2C (stereo not drawn)			IC50 [1, 3]: > 2000 nM
CCOC(=O)c1cc2c(s1)-c1cc(F)ccc1OC2			IC50 [1, 5]: > 2000 nM
CC(C)(C)OC(=O)CC1CCCN1C(=O)c1cc2c(s1)-c1cc(F)cc(F)c1SC2 (stereo not drawn)			IC50 [1, 3]: > 2000 nM
O=C(O)c1cc2c(s1)-c1sccc1CC2 [4,5-dihydrobenzo[1,2-b:6,5-b′]dithiophene-2-carboxylic acid]		< 1000	

Second part, led by results:

IC50 ([1]; class symbols) [nM]	EC50 ([2]; class symbols) [nM]	Structure (SMILES)	also measured
< 2000		O=C(O)C1CCCN1C(=O)c1cc2c(s1)-c1cc(F)cc(F)c1SC2 (stereo not drawn)	
< 1000		O=C(O)C1CCCN1C(=O)c1cc2c(s1)-c1c(F)ccc(F)c1SC2 (stereo not drawn)	
< 1000		CC1(C)Cc2cc(C(=O)O)sc2-c2ccccc21	
< 50	< 50	COc1ccc2c(c1Cl)CCc1cc(C(N)=O)sc1-2	
< 1000	< 50	COCCNC(=O)c1cc2c(s1)-c1ccc(OC)c(Cl)c1CC2	
< 1000	< 50	COc1ccc2c(c1Cl)CCc1cc(C(=O)NCCN3CCOCC3)sc1-2	
< 1000	< 50	Cc1ccc(Cl)c2c1-c1sc(C(=O)O)cc1CO2	
< 1000	< 50	COc1ccc2c(c1Cl)CCc1cc(C(=O)NCCC#N)sc1-2	
< 100	< 50	O=C(NCc1ncco1)c1cc2c(s1)-c1cccc(F)c1CC2	
< 50	< 50	NC(=O)c1cc2c(s1)-c1ccc(F)c(F)c1OC2	
< 1000		Cc1ccc2c(c1C)CCc1cc(C(=O)O)sc1-2	
< 1000		Cc1ccc2c(c1C)CCc1cc(C(N)=O)sc1-2	
< 1000		CC1(C)Oc2c(F)cc(F)cc2-c2sc(C(=O)O)cc21	
< 1000	< 50	O=C(O)c1cc2c(s1)-c1cc(F)cc(F)c1CC2	
< 50		NC(=O)c1cc2c(s1)-c1c(F)ccc(F)c1OC2	
< 50	< 50	NC(=O)c1cc2c(s1)-c1ccc(F)cc1CC2	
< 50	< 50	NC(=O)c1cc2c(s1)-c1cc(F)c(F)cc1CC2	
< 2000		Cc1cc2c(cc1C)-c1sc(C(N)=O)cc1CC2	
< 2000		O=C(O)c1cc2c(s1)-c1c(F)cc(F)cc1OC2	
< 1000		O=C(O)c1cc2c(s1)-c1c(F)cc(F)cc1SC2	
< 1000		NC(=O)c1cc2c(s1)-c1cc(Cl)ccc1OC2	
< 1000	< 50	O=C(O)c1cc2c(s1)-c1c(cccc1C(F)(F)F)OC2	
< 50	< 50	NC(=O)c1cc2c(s1)-c1c(cccc1C(F)(F)F)OC2	
< 1000	< 50	COc1ccc2c(c1Cl)CCc1cc(C(=O)NCCc3nnn[nH]3)sc1-2	
< 100	< 100	N#CCCNC(=O)c1cc2c(s1)-c1cccc(F)c1CC2	
< 1000		CCCCNC(=O)c1cc2c(s1)-c1ccccc1CC2	
< 1000		CCOC(=O)c1cc2c(s1)-c1ccc(C)c(F)c1CC2	
< 1000		COC(=O)c1cc2c(s1)-c1ccccc1OC2	
< 1000	< 50	COC(=O)c1cc2c(s1)-c1ccccc1CC2	
